Source: ChEMBL document CHEMBL4665745, “Bioactive Lignans from Hypoestes aristata” (J Nat Prod, 2020)
The source made the active and inactive calls. No cut-off for these calls is given here.

Columns and labels:
[1] = target: Human immunodeficiency virus type 1 protease (Human immunodeficiency virus 1) (UniProt Q72874); assay: Inhibition of HIV-1 protease at >100 uM after 1 hr by fluorescence assay; conditions: dose microM >100, time 1.0 hrs
[2] = target: Human immunodeficiency virus type 1 protease (Human immunodeficiency virus 1) (UniProt Q72874); assay: Inhibition of HIV-1 protease at <60 uM after 1 hr by fluorescence assay; conditions: dose microM <60, time 1.0 hrs
MDA-MB-231 [3] = assay: Cytotoxicity against human MDA-MB-231 cells assessed as reduction in cell viability at >90 uM after 48 hrs; format: functional, cell-based; conditions: dose microM >90, time 48.0 hrs
MCF7 [4] = assay: Cytotoxicity against human MCF7 cells assessed as reduction in cell viability at <90 uM after 48 hrs; format: functional, cell-based; conditions: dose microM <90, time 48.0 hrs
MDA-MB-231 [5] = assay: Cytotoxicity against human MDA-MB-231 cells assessed as reduction in cell viability after 48 hrs; format: functional, cell-based
MCF7 [6] = assay: Cytotoxicity against human MCF7 cells assessed as reduction in cell viability after 48 hrs; format: functional, cell-based

O=C1OC[C@H](Cc2ccc3c(c2)OCO3)[C@H]1Cc1ccc2c(c1)OCO2 was tested, and the inhibition [1] was “Active” and the inhibition [2] was “Active”.

In the case of COc1cc([C@H]2OC[C@H]3[C@@H]2CO[C@@H]3c2cc(OC)c(O)c(OC)c2)ccc1O, the inhibition [1] is reported as “Active”.

CC(=O)N[C@H](C(=O)N[C@H](C(=O)N[C@@H](CC(C)C)[C@@H](O)CC(=O)N[C@@H](C)C(=O)N[C@@H](CC(C)C)[C@@H](O)CC(=O)O)C(C)C)C(C)C was tested, and the Activity (MDA-MB-231 [3]) was “inactive” and the Activity (MCF7 [4]) was “inactive”.

With CC(=O)O[C@@H](c1ccc2c(c1)OCO2)[C@H]1COC(O)[C@@H]1[C@@H](OC(C)=O)c1ccc2c(c1)OCO2 (stereo partly specified) the inhibition [1] was “Active”, the Activity (MDA-MB-231 [5]) was “Active” and the Activity (MDA-MB-231 [3]) was “inactive”. The Activity (MCF7 [4]) was “inactive” and the Activity (MCF7 [6]) was “Active”.

In the case of CC(=O)O[C@H](c1ccc2c(c1)OCO2)[C@H]1COC(=O)[C@@H]1[C@H](O)c1ccc2c(c1)OCO2, the inhibition [1] is reported as “Active”, the Activity (MDA-MB-231 [5]) is reported as “Active” and the Activity (MDA-MB-231 [3]) is reported as “inactive”. For the same compound, the Activity (MCF7 [4]) was “inactive” and the Activity (MCF7 [6]) was “Active”.

CC(=O)O[C@H](c1ccc2c(c1)OCO2)[C@H]1COC(=O)[C@@H]1[C@H](OC(C)=O)c1ccc2c(c1)OCO2 was tested, and the inhibition [1] was “Active”, the inhibition [2] was “Active” and the Activity (MDA-MB-231 [5]) was “Active”. The Activity (MDA-MB-231 [3]) was “inactive”, the Activity (MCF7 [4]) was “inactive” and the Activity (MCF7 [6]) was “Active”.
